Measured values taken from PMC10634346 (Cancer Research Communications, 2023).

Assays:
[1] = test system: MCL1 mRNA in whole blood; assay: MCL1 mRNA in whole blood of patients (RNA-seq, PK/PD modeling); format: in vivo, human; settings: for Downregulation of MCL1 mRNA: C1D15
Protocol: (§1) Total RNA was extracted from blood of patients and cell lines using RNeasy Plus Mini Kit (QIAGEN, #74136) and cDNA prepared with the Maxima First Strand cDNA Synthesis Kit for RT-PCR (Thermo Fisher Scientific, K1642) according to manufacturer's instructions. The integrity of purified total RNA was evaluated using an Agilent 2100 Bioanalyzer system and RNA 6000 Nano Kit (Agilent, #5067-1511). Differential gene expression analysis was performed (Fios Genomics) from RNA-seq data (Discovery Life Sciences). MYC and MCL1 mRNA levels were measured by qPCR in vitro and in vivo, using a Taqman qPCR system (Thermo Fisher Scientific), TaqMan Fast Universal PCR Master Mix (2X) no AmpErase (#4352042) and TaqMan probes for MYC (Hs00153408_m1) and MCL1 (Hs03043899_m1). RNA-seq data were analyzed using DESeq2 ([35]).
(§2) Fifteen patients with refractory or relapsed DH-DLBCL or other MYC+ NHL were treated with enitociclib (30 mg, 21-day cycle, once weekly x3) as a 30-minute intravenous infusion on study days 1, 8, and 15 (NCT02635672). Longitudinal gene expression levels were analyzed by RNA-seq, and enitociclib plasma concentrations were measured using LC/MS-MS. The clinical study protocol was approved by the Institutional Review Board of participating institutions and complied with the Declaration of Helsinki, current Good Clinical Practice guidelines, and local laws and regulations. Written informed consent was provided by all participants prior to the initiation of any study-specific procedure.
(§3) All pharmacokinetic parameters were calculated by noncompartmental methods as described previously ([36]) using WinNonlin v5.3 (Certara LP). Pharmacokinetic/pharmacodynamic modeling was performed using SAAM II v2.3.2 (The Epsilon Group). Pooled pharmacokinetic data from all patients [n = 15 for single dose, cycle 1 day 1 (C1D1) and n = 11 for multiple doses, cycle 1 day 15 (C1D15)] were characterized using a one-compartment model with intravenous dosing. Subsequently, the pharmacokinetic/pharmacodynamic relationship of enitociclib plasma concentrations to MCL1 and MYC mRNA change was characterized using an indirect response model ([37]) on pooled biomarker data where enitociclib concentrations inhibit the formation of MCL1 or MYC mRNA as described by the following equation: […]
(§4) PD is defined as MCL1 or MYC mRNA expression level as a percentage from baseline, t (h) is the time, kin (1/h) is the formation rate of MCL1 or MYC, IC50 (µg/L) is the enitociclib concentration where there is 50% inhibition of PD, kout (h^−1) is the rate constant describing the loss of PD, and n is the hill coefficient. At homeostasis, kin = kout (PD); therefore, kout was replaced by kin/(PD)initial where (PD)initial is equal to 100%. Estimates of pharmacokinetic and pharmacodynamic parameters from pharmacokinetic/pharmacodynamic modeling of pooled data are presented as the estimate followed by CV in parentheses.
(§5) RNA-seq data generated from the analysis of two cell lines treated with the three CDK9 inhibitors was analyzed to investigate the differences in gene expression levels between various posttreatment timepoints and the pretreatment samples. Quality control assessment and exploratory data analysis by principal component analysis (PCA) were done on raw counts and on normalized count data. Normalization of RNA-seq count data was done using trimmed mean of M-values normalization and transformed with voom, resulting in log2 counts per million with associated precision weights. […] Significance values (Padj) were adjusted for multiple testing, by controlling the FDR using the Benjamini–Hochberg procedure. […] RNA-seq data generated from blood samples taken from patients before and after their first dose (C1D1) or after multiple doses, before and after their third dose (C1D15) were analyzed and normalized using the same pipeline as cell lines for comparisons.

[2] = test system: MYC mRNA in whole blood; assay: MYC mRNA in whole blood of patients (RNA-seq, PK/PD modeling); format: in vivo, human; settings: for maximum extent of inhibition for MYC mRNA: C1D1, 30 mg; for MYC mRNA downregulation: C1D15, third weekly 30 mg dose; for mean fold change mRNA levels of MYC: after C1D1 dose; for mean fold change mRNA levels of MYC / MYC mRNA fold change: RNA-seq; for MYC mRNA fold change: after C1D15 dose
Protocol: as §1, §2, §3, §4, §5

[3] = Body weight of treated xenograft mice; format: in vivo, C.B-17 SCID mice; settings: 15 mg/kg i.v. once weekly
Protocol: A total of 10 × 10^6 SU-DHL-10 cells were inoculated subcutaneously into 6–8 weeks old female C.B-17 SCID mice (Iffa Credo, Brussels). The mice were randomized to treatment groups at a tumor volume of 63–104 mm^3 and treated (intravenously, once weekly) with 10 mg/kg enitociclib (60% PEG400, 10% ethanol, water), 15 mg/kg enitociclib (30% PEG400, 10% ethanol, water), or corresponding vehicle treatments. Mice were around 10–12 weeks of age at the start of study. All animal experiments were performed under the national animal welfare laws of Germany and approved by the local authorities.

[4] = Fraction unbound in cell media; format: in vitro ADME

COc1cc(F)ccc1-c1cc(Nc2cc(CS(C)(=N)=O)ccn2)ncc1F (stereo not drawn) [enitociclib]
maximal downregulation of MCL1 mRNA level in blood of patients postdose ([1]; 30 mg dose): 55.5% | maximal extent of MCL1 mRNA downregulation ([1]; C1D1, 30 mg, other MYC+ NHL, range 22.5%–48.2%): 44.54% | time of maximal MCL1 mRNA inhibition ([1]; C1D1, 30 mg, patient with the transformed follicular lymphoma): 8 hours postdose | maximal extent of MCL1 mRNA downregulation ([1]; C1D1, 30 mg, patients with DH-DLBCL, range 31%–52.4%): 49.28% | Downregulation of MCL1 mRNA ([1]; DH-DLBCL, range 30%–55.5%): 45.81% | Downregulation of MCL1 mRNA ([1]; other MYC+ NHL, range 0%–43.1%): 18.27% | IC50 ([1]; Homo sapiens, PK/PD indirect response model, pooled patient blood data, read-out: model estimated unbound IC50 for MCL1 mRNA): 61.2 to 69.1 nM | maximum extent of inhibition for MYC mRNA ([2]; other MYC+ NHL (n = 5), range 69.9%–90.5%): 82.3% | maximum extent of inhibition for MYC mRNA ([2]; patients with DH-DLBCL (n = 10), range 73.6%–94.8%): 89.6% | MYC mRNA downregulation ([2]; DH-DLBCL (n = 9), range 96.85%–50%): 86.71% | MYC mRNA downregulation ([2]; other MYC+ NHL (n = 3), range 53.7%–86.9%): 71.08% | mean fold change mRNA levels of MYC ([2]; DH-DLBCL): −3.45 (SD 0.68) | MYC mRNA fold change ([2]; DH-DLBCL): −3.38 (SD 1.07) | IC50 ([2]; Homo sapiens, PK/PD indirect response model, pooled patient blood data, read-out: model estimated unbound IC50 for MYC mRNA): 17.4 to 22 nM | mean fold change mRNA levels of MYC ([2]; other MYC+ NHL): −2.61 (SD 0.54) | MYC mRNA fold change ([2]; other MYC+ NHL): −1.97 (SD 0.75) | maximum body weight change [3]: −12.5% | fraction unbound [4]: 0.666
